For 4 compounds, MIC results are on record in DBAASP.

Assay in all cases: ≥ marks a high value that may be exact or a test limit, other limits are often not marked, values filed in µg/mL are converted to µM
In test [1] the test system is Staphylococcus aureus ATCC 25923.
Test [2] has as its system Escherichia coli ATCC 9637.
The test system of test [3] is Lactobacillus acidophilus ATCC 4356.
The subject of test [4] is Staphylococcus aureus ATCC 700698.
Test [5] concerns Streptococcus mutans UA159.
In test [6] the test system is Streptococcus sanguinis ATCC 10556.
In test [7] the test system is Streptococcus sobrinus ATCC 6715.
In test [8] the test system is Limosilactobacillus fermentum ATCC 9338.
In test [9] the test system is Staphylococcus aureus ATCC 700699.
For test [10], the system named is Klebsiella pneumoniae ATCC 27736.
The subject of test [11] is Sporothrix schenckii.
Test [12] has as its system Actinomyces viscosus ATCC 15987.
Test [13] has as its system Pseudomonas aeruginosa ATCC BAA-427.
Test [14] has as its system Staphylococcus aureus ATCC 29213.
The test system of test [15] is Streptococcus gordonii ATCC 10558.
Test [16] deals with Actinomyces naeslundii ATCC 12104.
For test [17], the system named is Candida albicans ATCC 10231.
Test [18] relates to Cryptococcus neoformans.
Test [19] has as its system Staphylococcus aureus ATCC 33592.
Test [20] relates to Lacticaseibacillus casei ATCC 393.
Test [21] concerns Staphylococcus aureus ATCC BAA-44.
The subject of test [22] is Bacillus subtilis ATCC 6633.
Test [23] relates to Candida parapsilosis ATCC 22019.
Test [24] concerns Enterococcus faecalis ATCC 29212.
The subject of test [25] is Salmonella typhimurium.
For test [26], the system named is Shewanella putrefaciens IAM 1509.
Test [27] relates to Escherichia coli JCM 1649.
In test [28] the test system is Vibrio anguillarum NCIMB 829.
For test [29], the system named is Staphylococcus aureus IAM 1011.
Test [30] concerns Bacillus subtilis IAM 1026.
In test [31] the test system is Aeromonas salmonicida NCIMB 1102.
Test [32] relates to Vibrio parahaemolyticus Vp+1.
Test [33] deals with Photobacterium damselae subsp. piscicida Sp 9587.
The subject of test [34] is Batrachochytrium dendrobatidis.
Test [35] concerns Staphylococcus aureus.
The test system of test [36] is Micrococcus luteus.
Test [37] relates to Bacillus cereus.
Test [38] deals with Enterococcus faecalis.
For test [39], the system named is Escherichia coli.
The test system of test [40] is Streptococcus uberis.
Test [41] concerns Mannheimia haemolytica.
Test [42] concerns Leuconostoc mesenteroides.
The subject of test [43] is Pseudomonas syringae pv. actinidiae Psa3700.1.1.
Test [44] has as its system Pseudomonas syringae pv. syringae EPS 94.
Test [45] relates to Erwinia amylovora PMV 6076.
In test [46] the test system is Xanthomonas campestris pv. Vesicatoria 2133-2.
Test [47] concerns Xanthomonas arboricola pv. pruni CFBP 5563.
The test system of test [48] is Xanthomonas fragariae Xf349-9A.

≈ marks a conversion by molar mass, not a printed value.

With `CC[C@H](C)[C@H](NC(=O)[C@H](C)NC(=O)[C@H](CCCCN)NC(=O)CNC(=O)[C@H](C)NC(=O)[C@H](Cc1cnc[nH]1)NC(=O)[C@@H](NC(=O)[C@H](C)NC(=O)CNC(=O)[C@H](CCCCN)NC(=O)[C@@H](NC(=O)[C@H](CC(C)C)NC(=O)[C@H](Cc1c[nH]c2ccccc12)NC(=O)CNC(=O)[C@H](Cc1ccccc1)NC(=O)[C@@H](N)Cc1ccccc1)[C@@H](C)CC)[C@@H](C)CC)C(=O)N[C@@H](Cc1cnc[nH]1)C(=O)NCC(=O)N[C@@H](CC(C)C)C(=O)N[C@H](C(=O)N[C@@H](Cc1cnc[nH]1)C(=O)N[C@@H](CCCN=C(N)N)C(=O)N[C@@H](CCCN=C(N)N)C(=O)N[C@@H](CCCN=C(N)N)C(=O)N[C@@H](Cc1cnc[nH]1)C(=O)O)[C@@H](C)CC` [FFGWLIKGAIHAGKAIHGLIHRRRH], the MIC in test [1] turned out to be 3 µM (≈ 8.68 µg/mL); in [2], 3.4 µM (≈ 9.83 µg/mL); in test [3], 1.96 µM (≈ 5.66 µg/mL); in test [4], 3 µM (≈ 8.68 µg/mL); in test [5] it was 1.38 µM (≈ 4 µg/mL); in test [6], 1.96 µM (≈ 5.66 µg/mL). The MIC in test [7] came out at 1.38 µM (≈ 4 µg/mL); in test [8] it was 1.38 µM (≈ 4 µg/mL); in test [9] it was 1.6 µM (≈ 4.63 µg/mL); in test [10] it was 3 µM (≈ 8.68 µg/mL); in test [11], 13.6 µM (≈ 39.3 µg/mL); in test [12] it was 2.77 µM (≈ 8 µg/mL). Besides, the MIC in test [13] came out at 6.8 µM (≈ 19.7 µg/mL); in test [14] it was 1.6 µM (≈ 4.63 µg/mL); in [15], 2.77 µM (≈ 8 µg/mL); in test [16], 2.77 µM (≈ 8 µg/mL); in test [17], 6.8 µM (≈ 19.7 µg/mL); in test [18], 3 µM (≈ 8.68 µg/mL). Also, the MIC in test [19] was found to be 1.6 µM (≈ 4.63 µg/mL); in [20], 1.38 µM (≈ 4 µg/mL); in [21], 1.6 µM (≈ 4.63 µg/mL); in [22] it was 6 µM (≈ 17.4 µg/mL); in test [23], 3 µM (≈ 8.68 µg/mL); in test [24], 3.91 µM (≈ 11.3 µg/mL).

For the compound `CC[C@H](C)[C@H](NC(=O)CNC(=O)CNC(=O)[C@@H](NC(=O)[C@@H](N)Cc1ccccc1)[C@@H](C)CC)C(=O)N[C@H](C(=O)N[C@@H](CO)C(=O)N[C@@H](Cc1ccccc1)C(=O)N[C@@H](Cc1ccccc1)C(=O)N[C@@H](CCCCN)C(=O)N[C@@H](CCCN=C(N)N)C(=O)N[C@@H](CC(C)C)C(=O)N[C@@H](Cc1ccccc1)C(=O)O)[C@@H](C)CC` [FIGGIISFFKRLF], the MIC in [25] was ≥ 32.4 µM; in [26], 4.05 µM (≈ 6.25 µg/mL); in test [27] it was ≥ 32.4 µM; in [28] it was 8.09 µM (≈ 12.5 µg/mL); in test [29], 2.03 µM (≈ 3.13 µg/mL); in test [30], 2.03 µM (≈ 3.13 µg/mL). Moreover, the MIC is ≥ 32.4 µM in test [31], 16.2 µM (≈ 25 µg/mL) in test [32] and 4.05 µM (≈ 6.25 µg/mL) in [33].

`CSCC[C@H](N=C(O)[C@H](CC(C)C)N=C(O)CN)C(O)=N[C@@H](CO)C(O)=N[C@H](C(O)=N[C@@H](CC(C)C)C(O)=NCC(O)=N[C@@H](Cc1cnc[nH]1)C(O)=N[C@@H](C)C(O)=N[C@H](C(O)=NCC(O)=N[C@@H](CC(=N)O)C(O)=N[C@H](C(O)=N[C@@H](CC(C)C)C(O)=NCC(O)=NCC(O)=N[C@@H](CC(C)C)C(O)=N[C@@H](Cc1ccccc1)C(O)=N[C@@H](CCCCN)C(=O)N1CCC[C@H]1C(O)=N[C@@H](CCCCN)C(=O)O)C(C)C)C(C)C)C(C)C` [GLMSVLGHAVGNVLGGLFKPKS]: the MIC in [34] is ≥ 100 µM; in [35] it was 45.8 µM (≈ 96 µg/mL); in test [36], 0.688 µM (≈ 1.44 µg/mL); in [37], 5.73 µM (≈ 12 µg/mL); in [38], ≥ 68.8 µM; in test [39] it was 22.9 µM (≈ 48 µg/mL). In addition, the MIC amounted to 22.9 µM (≈ 48 µg/mL) in [40], 0.367 µM (≈ 0.768 µg/mL) in [41] and 11.5 µM (≈ 24 µg/mL) in [42].

In the case of `CSCC[C@H](NC(=O)[C@@H](NC(=O)[C@H](Cc1ccc(O)cc1)NC(=O)[C@H](CO)NC(=O)[C@H](CS)NC(=O)[C@@H](N)Cc1ccc(O)cc1)[C@@H](C)O)C(=O)N[C@@H](CCC(=O)O)C(=O)N[C@@H](C)C(N)=O` [YCSYTMEA], the MIC in [43], in test [44], in test [45], in test [46], in test [47] and in [48] was ≥ 50 µM in each case.
